Assay results reported in patent EP4186514A1, “PHARMACEUTICAL COMPOSITION FOR PREVENTING OR TREATING CHOLANGITIS OR LIVER DISEASE CAUSED BY CHOLANGITIS COMPRISING ADENOSINE DERIVATIVE” (Future Medicine Co., Ltd., priority 2021, dated 2023).

Legend:
A1 adenosine receptor = molecular target: T1, A1 adenosine receptor (Homo sapiens, UniProt P30542); experiment: Radioligand binding affinity, A1 adenosine receptor ([3H]CCPA, CHO cells); set-up: % hA1: dose or concentration left out as unconfirmed; conditions: for % hA1: percentage inhibition of specific binding of [3H]CCPA; for Ki: nM ± SEM, read-out: Ki(nM) hA1
T1 construct: expressed in transfected cells; host or cells: CHO cells (ATCC No. CCL-61)
T1 sequence (P30542 1-326): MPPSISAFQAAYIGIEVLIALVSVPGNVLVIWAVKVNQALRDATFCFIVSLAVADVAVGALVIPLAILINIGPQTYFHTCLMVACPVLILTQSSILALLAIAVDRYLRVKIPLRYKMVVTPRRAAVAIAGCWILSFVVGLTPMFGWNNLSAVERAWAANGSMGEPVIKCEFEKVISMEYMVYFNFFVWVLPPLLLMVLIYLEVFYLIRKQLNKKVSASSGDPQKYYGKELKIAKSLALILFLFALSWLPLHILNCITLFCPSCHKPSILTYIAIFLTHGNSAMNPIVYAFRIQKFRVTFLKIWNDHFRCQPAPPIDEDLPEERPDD

A2A adenosine receptor = molecular target: T2, A2A adenosine receptor (Homo sapiens, UniProt P29274); experiment: Radioligand binding affinity, A2A adenosine receptor ([3H]CGS-21680, HEK 293 cell); conditions: for % hA2A: percentage inhibition of specific binding of 10 µM; for Ki: nM ± SEM, read-out: Ki(nM) hA2A
T2 construct: expressed in transfected cells; host or cells: HEK 293 cell
T2 sequence (P29274 whole entry): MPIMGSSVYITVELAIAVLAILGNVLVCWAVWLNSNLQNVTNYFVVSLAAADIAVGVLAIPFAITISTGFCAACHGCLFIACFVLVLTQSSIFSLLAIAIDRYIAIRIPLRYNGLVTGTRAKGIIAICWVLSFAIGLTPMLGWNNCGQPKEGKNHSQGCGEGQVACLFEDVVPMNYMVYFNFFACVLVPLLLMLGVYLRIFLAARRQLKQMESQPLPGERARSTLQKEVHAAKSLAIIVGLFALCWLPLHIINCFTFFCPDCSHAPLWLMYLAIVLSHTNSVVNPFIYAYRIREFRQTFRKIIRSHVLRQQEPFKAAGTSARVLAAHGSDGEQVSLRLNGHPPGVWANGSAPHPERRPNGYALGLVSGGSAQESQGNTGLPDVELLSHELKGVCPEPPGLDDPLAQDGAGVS

A3 adenosine receptor = molecular target: T3, A3 adenosine receptor (Homo sapiens, UniProt P0DMS8); experiment: Radioligand binding affinity, A3 adenosine receptor ([125I]AB-MECA, CHO cells); set-up: % hA3: dose or concentration left out as unconfirmed; conditions: for Ki: nM ± SEM, read-out: Ki(nM) hA3
T3 construct: expressed in transfected cells; host or cells: CHO cells (ATCC No. CCL-61)
T3 sequence (P0DMS8 1-318): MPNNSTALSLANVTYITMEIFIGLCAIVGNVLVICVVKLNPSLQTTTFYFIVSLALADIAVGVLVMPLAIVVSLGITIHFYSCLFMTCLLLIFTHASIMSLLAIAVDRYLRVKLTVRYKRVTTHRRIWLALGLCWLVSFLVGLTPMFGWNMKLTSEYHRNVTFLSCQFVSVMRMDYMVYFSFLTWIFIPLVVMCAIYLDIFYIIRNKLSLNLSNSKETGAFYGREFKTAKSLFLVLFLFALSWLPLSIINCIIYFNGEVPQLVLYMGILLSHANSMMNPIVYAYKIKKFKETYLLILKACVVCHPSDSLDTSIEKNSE

[1] = system: TPA-induced inflammation of the mouse ear; experiment: Anti-inflammatory activity, TPA-induced mouse ear inflammation; format: in vivo, ICR mice; conditions: for anti-inflammatory activity: 0.5% in acetone, 20 µl, FIG. 11 (Exp. Ex. 12)
Experimental: The adenosine derivatives of the present invention were examined for anti-inflammatory activity in the following animal test. Seven-week-old male ICR mice were treated with TPA (12-O-tetradecanoylphorbol-13-acetate, 20 µl) in the right ear. […] Hydrocortisone was used at the same concentration as a control.
6 hrs after treatment with TPA, the mice were secondarily treated with the adenosine derivatives of the present invention. 24 hrs after TPA treatment, test animals were euthanized using a cervical dislocation method. Samples were obtained from the right ear using a 6 mm diameter punch. The activity was observed by measuring the ear sample using a microbalance. Percentages of inhibition were calculated using the following Equation 1. The compositions and amounts used in these experiments are summarized in Tables 14 to 17 and the anti-inflammatory activities thereof are shown in FIGS. 10 to 13. % Inhibition = (1−Rt.Ear(Test−Nontreated))/(Rt.Ear(TPAonly−Nontreated)) [formula]

[2] = 0.5% in a mixture of distilled water and acetone (1:4), FIG. 12 (Exp. Ex. 13)
[3] = 0.5% in a mixture of DMSO and acetone (1:9), FIG. 13 (Exp. Ex. 14)

SMILES	% hA1 (A1 adenosine receptor) [%]	% hA2A (A2A adenosine receptor) [%]	Ki (A3 adenosine receptor) [nM]	Ki (A1 adenosine receptor) [nM]	Ki (A2A adenosine receptor) [nM]	% hA3 (A3 adenosine receptor; percentage inhibition of specific binding) [%]	percentages of inflammation inhibition [1, 2] [%]	anti-inflammatory activity [1]	percentages of inflammation inhibition [1, 3] [%]
COc1ccccc1CNc1nc(Cl)nc2c1ncn2[C@@H]1SC[C@@H](O)[C@H]1O [Example 7, (2R,3R,4S)-2-(2-chloro-6-(2-methoxybenzylamino)-9H-purin-9-yl)tetrahydrothiophen-3,4-diol]	9.4	17.5	19.9 ± 7.1				53		
O[C@@H]1[C@H](O)CS[C@H]1n1cnc2c(NCc3cccc(Br)c3)nc(Cl)nc21 [Example 3, (2R,3R,4S)-2-(6-(3-bromobenzylamino)-2-chloro-9H-purin-9-yl)tetrahydrothiophen-3,4-diol]	34.2	18.4	8.99 ± 5.17						
O[C@@H]1[C@H](O)CS[C@H]1n1cnc2c(NCc3ccccc3Cl)nc(Cl)nc21 [Example 5, (2R,3R,4S)-2-(2-chloro-6-(2-chlorobenzylamino)-9H-purin-9-yl)tetrahydrothiophen-3,4-diol]	12.8		25.8 ± 6.3		1600 ± 135		17		
O[C@@H]1[C@H](O)CS[C@H]1n1cnc2c(NCc3cccc(F)c3)nc(Cl)nc21 [Example 1, (2R,3R,4S)-2-(2-chloro-6-(3-fluorobenzylamino)-9H-purin-9-yl)tetrahydrothiophen-3,4-diol]	19.8	47.6	7.4 ± 1.3					increased	
COc1ccc(Cl)cc1CNc1nc(Cl)nc2c1ncn2[C@@H]1SC[C@@H](O)[C@H]1O [Example 6, (2R,3R,4S)-2-(2-chloro-6-(5-chloro-2-methoxybenzylamino)-9H-purin-9-yl)tetrahydrothiophen-3,4-diol]	23.8		12.7 ± 3.7		4020 ± 1750		34	increased	

Continued, in another order:

% hA1 (A1 adenosine receptor) [%]	% hA2A (A2A adenosine receptor) [%]	Ki (A3 adenosine receptor) [nM]	Ki (A1 adenosine receptor) [nM]	Ki (A2A adenosine receptor) [nM]	% hA3 (A3 adenosine receptor; percentage inhibition of specific binding) [%]	SMILES	percentages of inflammation inhibition [1, 2] [%]	anti-inflammatory activity [1]	percentages of inflammation inhibition [1, 3] [%]
		6.8 ± 3.4	790 ± 190	420 ± 32		O[C@@H]1[C@H](O)CS[C@H]1n1cnc2c(NCc3cccc(Br)c3)ncnc21 [Example 13, (2R,3R,4S)-2-(6-(3-bromobenzylamino)-9H-purin-9-yl)tetrahydrothiophen-3,4-diol]			
		7.3 ± 0.6	1430 ± 420	1260 ± 330		O[C@@H]1[C@H](O)CS[C@H]1n1cnc2c(NCc3cccc(F)c3)ncnc21 [Example 11, (2R,3R,4S)-2-(6-(3-fluorobenzylamino)-9H-purin-9-yl)tetrahydrothiophen-3,4-diol]			
22.0	-8.3	24.8 ± 8.1				O[C@@H]1[C@H](O)CS[C@H]1n1cnc2c(NCc3cccc4ccccc34)nc(Cl)nc21 [Example 8, (2R,3R,4S)-2-(2-chloro-6-(naphthalen-1-ylmethylamino)-9H-purin-9-yl)tetrahydrothiophen-3,4-diol]			
55.4 ± 1.8	45.0 ± 1.4	3.69 ± 0.25				CNc1nc(Cl)nc2c1ncn2[C@@H]1SC[C@H](O)[C@@H]1O [Example 10, 2-(2-chloro-6-methylamino-purin-9-yl)tetrahydrothiophen-3,4-diol]			
		1.5 ± 0.4	860 ± 210	440 ± 110		O[C@@H]1[C@H](O)CS[C@H]1n1cnc2c(NCc3cccc(Cl)c3)ncnc21 [Example 12, (2R,3R,4S)-2-(6-(3-chlorobenzylamino)-9H-purin-9-yl)tetrahydrothiophen-3,4-diol]			
13.1	-0.18				41.5	O=C(O)c1cccc(CNc2nc(Cl)nc3c2ncn3[C@@H]2SC[C@@H](O)[C@H]2O)c1 [Example 9, 3-((2-chloro-9-((2R,3R,4S)-3,4-dihydroxytetrahydrothiophen-2-yl)-9H-purine-6-ylamino)methyl)benzoic acid]			
37.7	28.6	42.9 ± 8.9				O[C@@H]1[C@H](O)CO[C@H]1n1cnc2c(NCc3cccc(I)c3)nc(Cl)nc21 [Example 16, (2R,3R,4R)-2-(2-chloro-6-(3-iodobenzylamino)-9H-purin-9-yl)tetrahydrofuran-3,4-diol]			79
39.8	22.8	13 ± 6.9				O[C@@H]1[C@H](O)CO[C@H]1n1cnc2c(NCc3cccc(Br)c3)nc(Cl)nc21 [Example 15, (2R,3R,4R)-2-(6-(3-bromobenzylamino)-2-chloro-9H-purin-9-yl)tetrahydrofuran-3,4-diol]			59
